Here are results for two compounds from publication PMC6487176, “Specific Binding Peptides from Rv3632: A Strategy for Blocking Mycobacterium tuberculosis Entry to Target Cells?” (BioMed Research International, 2019).

Common to all, as to format: cell-based
For series [1], the system named is Mtb H37Rv entry to U937 macrophages. Put plainly: microbe, parasite or virus in culture. Particulars: Mycobacterium tuberculosis, U-937, 480 h, inhibition control at 30 μM, triplicate, read-out: inhibition of mycobacterial entry to U937 monocyte-derived macrophages.
Series [2] has as its system Mtb H37Rv entry to A549 alveolar epithelial cells. Put plainly: microbe, parasite or virus in culture. The note with it: Mycobacterium tuberculosis, A549, 480 h, inhibition control at 30 μM, triplicate, read-out: inhibition of mycobacterial entry to A549 epithelial cells.
The test system of the next series is U937 macrophage line. The note with it: MTT; peptide 20 and 200 μM in 1X PBS, 2 h; 5 x 10^4 cells/well; absorbance 570 nm. The procedure: Rv3632 peptides' cytotoxic effect was evaluated by viability assay involving MTT (3- (4,5-dimethylthiazol-2-yl) -2,5-diphenyltetrazolium bromide) tetrazolium reduction, where 5 x 10^4 cells/well were incubated for 2 hours with each peptide at 20 and 200 μM in 1X PBS, using the previously mentioned incubation conditions for the invasion assay; 10% SDS was used as cytotoxicity control. After incubation time had elapsed, 10μL MTT were added to each well and left for 12 hours; the formazan crystals so formed were dissolved with sodium dodecyl sulfate (SDS) for reading absorbance at 570nm on a spectrophotometer (Multiskan GO, Thermo Scientific). Multiskan GO (v. 3.2) software was used for analysing the data.

Where no end group is shown, it is not given here.

One may read the inhibition as the percentage by which the read-out fell short of the control. `C=C1[C@@H](C)[C@H]2[C@H](Cc3ccccc3)NC(=O)[C@]23[C@H](OC(C)=O)/C=C/[C@@](C)(O)C(=O)[C@@H](C)C/C=C/[C@H]3[C@@H]1O` [Cytochalasin, Cytochalasin D]: the inhibition at 30 µM stood at 80% in series [1] and 60% in series [2].

TLSTYMRFKDLELRYARIAR [compound 39255]: the “cytotoxic effect on the U937 macrophage line, result in words” value with U937 macrophage line is given as “without having a cytotoxic effect”.
